Reference: publication PMC6289299 (Inorganic chemistry, 2018)

Tests used:
physchem [1] = type: physicochemical
[2] = target: human carbonic anhydrase II (hCAII) (Homo sapiens, UniProt P00918); assay: hCAII assay; type: biochemical
physchem [3] = type: physicochemical; remark: listed apart in the source

logP (physchem [1]): < -2
logD (physchem [1]; pH 7.4): < -2
IC50 [2]: > 1000 µM
pKa (physchem [3]): < 1.5
Compound: O=C(O)c1ccccn1 [Compound 1, picolinic acid]
